Laboratory results from patent US7005258B1, “Cdc25 genes, encoded products and uses thereof” (The National Institutes of Health, priority 1991, dated 2006).

Target: T1, GST-cdc25A phosphatase (Homo sapiens, UniProt P30304)
T1 construct: made in house; host or cells: E. coli BL21(DE3)
T1 sequence (P30304 1-524): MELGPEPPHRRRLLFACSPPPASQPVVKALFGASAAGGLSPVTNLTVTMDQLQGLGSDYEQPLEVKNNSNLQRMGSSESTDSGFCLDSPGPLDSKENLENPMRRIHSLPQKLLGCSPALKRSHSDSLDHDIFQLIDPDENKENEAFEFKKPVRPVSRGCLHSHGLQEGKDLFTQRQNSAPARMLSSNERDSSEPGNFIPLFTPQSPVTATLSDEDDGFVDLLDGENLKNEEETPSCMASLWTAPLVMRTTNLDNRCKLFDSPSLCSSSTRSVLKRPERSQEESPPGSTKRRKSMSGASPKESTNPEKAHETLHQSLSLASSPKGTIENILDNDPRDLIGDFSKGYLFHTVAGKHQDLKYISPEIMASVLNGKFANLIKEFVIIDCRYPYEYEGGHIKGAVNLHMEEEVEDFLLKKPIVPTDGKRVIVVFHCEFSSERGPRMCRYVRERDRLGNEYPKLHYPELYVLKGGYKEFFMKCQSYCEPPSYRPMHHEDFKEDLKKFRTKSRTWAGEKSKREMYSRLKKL
Assay: GST-cdc25A phosphatase activity towards p-nitrophenylphosphate (microtitration plate assay)
Type: biochemical
Protocol: One ml assay: 100 μl of GST-cdc25A protein (diluted to an activity of ∂ OD 410 nm=0.3/10 min) were mixed with 100 μl […] (in Tris buffer A) and 700 μl of Tris buffer A. The assay was initiated by addition of 100 μl 500 mM p-NPP (in Tris buffer A). After 10 min incubation at 37° C., the assay was terminated by addition of 40 μl 5 N NaOH and transfer of the tubes to 4° C. Absorbance at 410 nm was then measured and blank values (no GST-cdc25A protein but 10 min incubation) were subtracted.
This assay was then scaled down to 200 μl and conducted semi-automatically in 96-wells microtitration plates, as described in detail below. Each well was filled with 20 μl GST-cdc25A phosphatase, 140 μl Tris buffer A, 20 μl 100 mM DTT (in Tris buffer A); after 15 min equilibration at 37° C., reaction was initiated by addition of 20 μl 500 mM p-NPP (in Tris buffer A). After 60 min incubation absorbance at 405 nm was monitored in a microplate reader; blank values (no GST-cdc25A added) were subtracted.
Microtitration plate assay: 20 μl of GST-cdc25A protein (diluted to an activity of a ∂ OD 405 nm=0.2–0.3/60 min) were mixed with 20 μl 100 mM DTT (in Tris buffer A) and 140 μl of Tris buffer A, in 96-wells microtitration plates (Corning). The plates were preincubated at 37° C. for 15 min in a Denley Wellwarm 1 microplate incubator. The assays were initiated by addition of 20 μl of 500 mM p-NPP (in Tris buffer A). After 60 min incubation at 37° C. absorbance at 405 nm was measured in a bioRad microplate reader. Blank values (no CST-cdc25A protein added) were automatically subtracted.
In a series of experiments various antimitotic compounds currently used in cancer therapy were tested as potential inhibitors of the phosphatase (the Table). Most of them are reported to act as DNA damaging agents, as DNA intercalators, as topoisomerase 2 inhibitors or as compounds interfering with spindle microtubles. […] As a positive control vanadate, a reported inhibitor of tyrosine phosphatases was also tested (Gordon, J. A., 1Methods in Enzymology pp. 447–482 (1991)).

[Na+].[Na+].[Na+].[O]=[V]([O-])([O-])[O-] [vanadate, sodium orthovanadate]
inhibition of GST-cdc25A phosphatase (at concentrations above 500 μM): totally inhibits
inhibition of cdc25 / GST-cdc25A phosphatase (summary statement) (concentration not given): totally inhibit
IC50 (p-NPP substrate, FIG. 14, read-out: I50, inhibition of GST-cdc25A phosphatase): 20 µM
